Molecular target: T1, KV4.2 (Rattus norvegicus, UniProt Q63881)
T1 sequence (Q63881 1-630): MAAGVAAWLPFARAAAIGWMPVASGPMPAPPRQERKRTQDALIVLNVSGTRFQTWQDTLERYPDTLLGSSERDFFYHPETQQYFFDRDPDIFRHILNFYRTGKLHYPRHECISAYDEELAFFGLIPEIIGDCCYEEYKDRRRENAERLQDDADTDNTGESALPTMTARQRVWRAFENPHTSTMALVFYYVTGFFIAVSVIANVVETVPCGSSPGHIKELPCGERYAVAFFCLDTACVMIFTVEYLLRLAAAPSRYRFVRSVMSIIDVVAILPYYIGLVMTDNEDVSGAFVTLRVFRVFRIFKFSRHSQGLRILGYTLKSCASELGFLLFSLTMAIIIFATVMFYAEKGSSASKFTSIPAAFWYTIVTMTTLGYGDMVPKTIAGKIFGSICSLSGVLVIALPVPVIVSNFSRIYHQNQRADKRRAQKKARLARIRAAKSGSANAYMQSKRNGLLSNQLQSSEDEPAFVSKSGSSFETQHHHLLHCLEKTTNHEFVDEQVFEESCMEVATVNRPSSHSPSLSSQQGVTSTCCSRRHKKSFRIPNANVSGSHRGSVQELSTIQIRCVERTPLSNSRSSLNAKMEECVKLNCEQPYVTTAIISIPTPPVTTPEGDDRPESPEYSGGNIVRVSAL
Experiment: Two-electrode voltage clamp of KV4.2 in Xenopus oocytes
Assay type: cell-based, human
Details: 10 µM CP1
Source text: Since CP1 has a similar effect to PIP2 in mediating VSD-pore coupling in KCNQ channels, we tested if CP1 has effects on other ion channels that are also sensitive to PIP2 or are voltage activated and share general structural features of the VSD and the pore with KCNQ. […] On the other hand, NaV1.5 and KV4.2 are voltage-gated ion channels.
Fig. 6 Effects of CP1 on other ion channels expressed in Xenopus oocytes. a Currents of Kir1.1, CaV1.2, NaV1.5, hERG, and KV4.2 before and after application of 10 µM CP1, respectively. The voltages for holding, test, and returning pulses were Kir1.1, 0 mV, −100 to +60 mV, 0; CaV1.2, −100 mV, −100 to +60, −100 mV; NaV1.5, −100, −120 to +40 mV, −120 mV; hERG, −80 mV, −90 to +60 mV, −60 mV; KV4.2, −80 mV, −100 mV to +80 mV, −40 mV; HCN4, −30 mV, −30 to −140 mV, −120 mV. b Current–voltage relations of Kir1.1 channel in the absence or presence of 10 µM CP1 (n = 7). c–g G–V relations of indicated channels with and without 10 µM CP1. The ΔV1/2 of G–V relations (mV) are CaV1.2, 3.38 ± 0.71 mV (c); NaV1.5, −2.26 ± 0.95 mV (d); hERG, 6.85 ± 1.81 mV (e); KV 4.2, −2.26 ± 2.88 mV (f); HCN4, 17.13 ± 1.59 mV (g).
Complementary DNA (cDNA) encoding human KCNQ1 (UniProtKB/Swiss‐Prot under accession no. P51787), KCNQ2 (O43526), KCNQ3 (O43525), KCNE1 (P15382), Kir1.1 (P48048), hERG (Q12809), KV4.2 (Q63881), NaV1.5 (Q14524), NaV β1 (Q07699), CaV1.2 (Q13936), CaV β1a (Q02641), CaV α2/δ1 (P54289), and HCN4 (Q9Y3Q4) were subcloned into oocyte expression vectors, respectively. Site-directed mutations of the KCNQ1 channel were all produced by overlap extension polymerase chain reaction (PCR) with high-fidelity Pfu polymerase (Stratagene, CA). The presence of the desired mutation was verified by sequencing the PCR-amplified regions. All the primer sequences used in this study are available in Supplementary Table 1. The complementary RNA (cRNA) of all these channels and mutations was transcribed in vitro with the T3, T7, or SP6 polymerase mMessage mMachine kit (Invitrogen, Thermo Fisher Scientific, MO).
The whole-oocyte ionic currents were recorded with a GeneClamp 500B amplifier (Axon Instruments, CA) or iTEV90 amplifier (HEKA, Germany) and then sampled at 1 kHz and low-pass-filtered at 2 kHz. The Patchmaster software (HEKA, Germany) was used to acquire data. The Kir1.1 current was recorded with a high K^+ bath solution containing (in mM) 96 KCl, 4 NaCl, 1 CaCl2, 2 MgCl2, and 10 HEPES, pH 7.3–7.4. The HCN4 current was recorded in ND66 solution containing (in mM) 66 NaCl, 32 KCl, 1.8 CaCl2, 1 MgCl2, and 5 HEPES, pH 7.6. All the other potassium channels were recorded in ND96 solution. The currents of CaV1.2 channel were recorded in 40 mM Ba^2+ bath solution containing (in mM) 40 Ba(OH)2, 50 TEA-OH, 2 KOH, and 5 HEPES, adjusted to pH 7.4 with methanesulfonic acid. CP1 (DISODIUM 5-BROMO-2-[9-CHLORO-3-(SULFONATOOXY) NAPHTHO [1,2-B] THIEN-2-YL]-1H-INDOL-3-YL SULFATE, Sigma-Aldrich, MO) and Chromanol 293B (Sigma-Aldrich, MO) were dissolved in bath solutions. All the chemicals were purchased from Sigma-Aldrich. To measure the I–V relations of the Kir1.1 channel, the test voltage was set from −100 to +60 mV for 1 s with 20-mV increments. The test pulses were stepped from a holding potential of 0 mV and then stepped back to 0 mV. The HCN4 currents were recorded by a test pulse between −30 and −140 mV in 10-mV step from a holding potential of −30 mV. For all the other potassium channels and CaV1.2 channel, the holding potential was −80 or −100 mV, and the test pulse was applied with 10-mV increment, which was followed with a repolarization pulse at −40 mV before returning to the holding potential. The durations of test and the repolarization pulse vary for different channels to allow the activation and deactivation of the channel to reach their steady states.

O=S(=O)([O-])Oc1c(-c2sc3c(ccc4cccc(Cl)c43)c2OS(=O)(=O)[O-])[nH]c2ccc(Br)cc12.[Na+].[Na+] [CP1, DISODIUM 5-BROMO-2-[9-CHLORO-3-(SULFONATOOXY) NAPHTHO [1,2-B] THIEN-2-YL]-1H-INDOL-3-YL SULFATE]
ΔV1/2 of G–V relations: −2.26 ± 2.88 mV
G/Gmax Mean (Fig. 6f) (voltage 0 mV): 0.3489
G/Gmax Mean (Fig. 6f) (voltage 10 mV): 0.4229
G/Gmax Mean (Fig. 6f) (voltage 20 mV): 0.5032
G/Gmax Mean (Fig. 6f) (voltage 30 mV): 0.5901
G/Gmax Mean (Fig. 6f) (voltage 40 mV): 0.6796
G/Gmax Mean (Fig. 6f) (voltage 50 mV): 0.7731
G/Gmax Mean (Fig. 6f) (voltage 60 mV): 0.8507
G/Gmax Mean (Fig. 6f) (voltage 70 mV): 0.9365
G/Gmax Mean (Fig. 6f) (voltage 80 mV): 1.0000
G/Gmax Mean (Fig. 6f) (voltage -10 mV): 0.2734
G/Gmax Mean (Fig. 6f) (voltage -20 mV): 0.2218
G/Gmax Mean (Fig. 6f) (voltage -30 mV): 0.1858
G/Gmax Mean (Fig. 6f) (voltage -40 mV): 0.1969
G/Gmax Mean (Fig. 6f) (voltage -50 mV): 0.2134
